Like-named read-outs stand apart in the source and are kept apart here.
Experiments:
CTX-M-9 β-lactamase = CTX-M-9 β-lactamase (Escherichia coli, UniProt Q9L5C8); assay: biochemical; type: biochemical
Method: Reactions were initiated by the addition of 0.3 nM enzyme and monitored at 405 nm.
(§1) To assess the selectivity of the new molecules we determined Ki values against three common serine proteases, Trypsin, Elastase and α-Chymotrypsin, as well as that of a class A β-lactamase, CTX-M-9 (Table 10) (Pouvreau L, et al. (1998), FEBS Lett 423:167-172; Del Mar E G, et al. (1980), Biochemistry 19:468-472; Rodriguez-Martinez J A, et al. (2009), Biotechnol Lett 31:883-887; Chen Y, et al. (2005), J Mol Biol 348:349-362).

[1] = molecular target: T1, α-chymotrypsin (bovine pancreatic) (Bos taurus, UniProt P00766); assay: α-Chymotrypsin inhibition; type: biochemical
T1 construct: purchased Sigma-Aldrich
Method: α-Chymotrypsin assays were performed in 50 mM Tris buffer pH 7.5 with 0.01% Triton-X. Inhibitor and 0.001 mg/mL enzyme were incubated at their final concentration for 10 min before the reaction was initiated by the addition of 200 μM N-succinyl-Ala-Ala-Pro-Phe p-nitroanilide and monitored at 410 nm.
as §1

cruzain = cruzain (Trypanosoma cruzi, UniProt P25779); assay: Cruzain inhibition, Z-FR-AMC cleavage; type: biochemical
Method: Cruzain assays were performed in 100 mM sodium acetate pH 5.5 with 0.01% Triton-X and 5 mM dithiothreitol. Cruzain activity was measured in a 96-well format fluorimetric assay, monitoring the cleavage of the substrate Z-Phe-Arg-aminomethylcoumarin (Z-FR-AMC), in a SpectraMax M5, Molecular Devices spectrofluorimeter.

[2] = tested on: E. cloacae overproducing chromosomally-mediated class C β-lactamase; assay: MIC of third-generation cephalosporins alone and with compounds 4 or 9 (Table 3); type: cell-based, Enterobacter cloacae; conditions: ratio 1:1
Description: (§2) Antimicrobial activity was investigated quantitatively to determine the minimum inhibitory concentrations (MICs) of the β-lactam/inhibitor combination necessary to inhibit the bacterial growth (Table 3). The MICs of β-lactams alone against the strains corresponded to a high level of resistance according to Clinical and Laboratory Standards Institute (CLSI) standards. (Clinical and Laboratory Standards Institute, Performance standards for antimicrobial susceptibility testing, 20th Informational Supplement, M100-S20 2010) The compounds had no measurable antibiotic activity when used alone.
(§3) Susceptibility testing was performed and interpreted following the guidelines of CLSI. (Clinical and Laboratory Standards Institute, Performance standards for antimicrobial susceptibility testing, 20th Informational Supplement, M100-S20 2010) The compounds were dissolved in 50% DMSO, and dilutions were performed using Muller-Hinton medium. An adequate final concentration was obtained to determine the minimum inhibitory concentrations (MICs). The concentration of DMSO was maintained below 5%. The inhibitors were tested for synergy with the third-generation β-lactams ceftazidime and cefotaxime against several clinical bacteria. […] Each value reported reflects the average of three independent experiments. […] A Klebsiella pneumoniae isolate produced the inducible plasmid-mediated class C enzyme DHA-1. The Friedman's test and the Wilcoxon signed rank test were used to compare MIC values. Statistical significance was established at p<0.05.

[3] = tested on: C. freundii overproducing chromosomally-mediated class C β-lactamase; assay: as above; type: cell-based, Citrobacter freundii; conditions: ratio 1:1
Description: as §2, §3

[4] = tested on: P. aeruginosa overproducing chromosomally-mediated class C β-lactamase; assay: as above; type: cell-based, Pseudomonas aeruginosa; conditions: ratio 1:1
Description: as §2, §3

[5] = tested on: K. pneumoniae producing the plasmid-mediated class C β-lactamase DHA-1; assay: as above; type: cell-based, Klebsiella pneumoniae; conditions: ratio 1:1
Description: as §2, §3

[6] = tested on: E. coli overproducing chromosomally-mediated class C β-lactamase; assay: as above; type: cell-based, Escherichia coli; conditions: ratio 1:1
Description: as §2, §3

[7] = tested on: E. coli producing plasmid-mediated class A β-lactamase CTX-M-14; assay: as above; type: cell-based, Escherichia coli; conditions: ratio 1:1
Description: as §2, §3

[8] = tested on: Klebsiella pneumoniae strain producing AmpC β-lactamase; assay: Disk diffusion plate assay; type: cell-based; conditions: for inhibition of bacterial growth in combination with ceftazidime: disk with ceftazidime (30 μg) and inhibitor (30 μg); for activity on bacteria growth, compound alone: disk with inhibitor alone (30 μg)
Description: (§4) FIG. 9. Inhibition of bacterial growth and potentiation effect. A) Activity of compounds 4 (CP4) and 9 (CP9) in combination with ceftazidime (CAZ) and alone against a Klebsiella pneumoniae strain producing AmpC β-lactamase. Solvent (SOL):DMSO/Water 1:1. B) Potentiation of β-lactamase inhibition in an E. cloacae strain in which ampC gene expression is inducible by β-lactam antibiotics, such as cefoxitin (FOX). C) Potentiation of β-lactamase inhibition in a Klebsiella pneumoniae isolate producing the inducible class C enzyme DHA-1.
For disk diffusion plate assays, bacterial strains were diluted in sterile water to a turbidity equivalent to 0.5 McFarland turbidity standards. After a subsequent 10-fold dilution, the bacterial suspensions were inoculated on Mueller Hinton agar. The plates were dried for 10 min before applying the disks containing cefotaxime or ceftazidime antibiotics (30 μg) or the inhibitor (30 μg) or both. After overnight incubation at 37° C., the zones of bacterial-growth inhibition were measured.

[9] = tested on: K. pneumoniae and E. cloacae strains in which AmpC expression is inducible; assay: β-lactamase induction experiments (disk potentiation of ceftazidime); type: cell-based, Klebsiella pneumoniae; Enterobacter cloacae; conditions: 64 μg of compounds or 32 μg cefoxitin per disk, ceftazidime disk 30 μg
Description: as §4
A traditional β-lactam resistance mechanism is the upregulation of β-lactamase-encoding gene transcription caused by β-lactams such as cefoxitin and the β-lactamase inhibitor clavulanate. To test the role of compounds on the induction of AmpC expression, we investigated their ability to potentiate the action of the β-lactam ceftazidime. We compared the potentiation effect of compounds with that of cefoxitin (FIGS. 9B and 9C). Agar plates were inoculated with K. pneumoniae and E. cloacae strains in which AmpC expression is inducible. A ceftazidime-containing disk and a disk containing the inhibitors (cefoxitin or compounds 4 and 9) were placed on each plate. As ceftazidime diffuses from disks into the agar, a clear zone is created around the ceftazidime-containing disk, indicating where bacteria are unable to grow. The shape of this halo in the vicinity of the inhibitor-containing disk indicated the effect of these compounds on the induction of AmpC. The inhibition halos normally surrounding ceftazidime were substantially diminished in the regions nearest to the cefoxitin disk.
For the β-lactamase induction experiments, plates of Mueller Hinton agar were inoculated with two clinical strains (E. cloacae and K. pneumoniae) in which production of AmpC-type enzyme is inducible by β-lactam antibiotics. Inhibitors were added to blank disks, and the final content of inhibitor per disk was 64 μg of compounds and 32 μg cefoxitin. Disks of ceftazidime contained 30 μg of antibiotic.

AmpC β-lactamase [10] = molecular target: T2, AmpC β-lactamase (Escherichia coli, UniProt P00811); type: biochemical; conditions: enzyme incubation and dilution experiments
T2 construct: made in house

AmpC β-lactamase [11] = molecular target: T2, AmpC β-lactamase; assay: biochemical; type: biochemical
Method: FIG. 18. Representative IC50 curves. […] IC50 curves were obtained by measuring rates (in duplicates) at different inhibitor concentrations (x-axis) and by determining the residual activity (y-axis, in percentage). IC50 values were determined by non-linear regression and Ki values calculated using GraphPad software assuming competitive inhibition.
Sulfonamidomethaneboronic acids were dissolved in 100% DMSO at a concentration of 100 mM; more diluted stocks were prepared as necessary. […] The enzyme was expressed and purified as described (Usher, K. C. et al., Biochemistry 1998, 37, 16082-16092) and CENTA was purchased from Tydock Pharma.
Kinetic measurements were run at room temperature in 50 mM sodium-cacodylate pH 6.5 in the presence of 0.01% Triton-X to prevent non-specific inhibition via compound aggregation. […] (Kettner, C. A. and Shenvi, A. B., J. Biol. Chem. 1984, 259, 15106-15114) Reactions were performed in 1 mL cuvettes with 60 μM CENTA and initiated by adding 1.2 nM enzyme. […] (Weston, G. S. et al., J. Med. Chem. 1998, 41, 4577-4586) The first 180 sec of each reaction were used to measure initial rates. IC50 values were obtained by fitting binding data to a sigmoidal dose-response equation using GraphPad Prism (GraphPad software, Inc). Ki values were determined by the use of Cheng-Prusoff equation. (Cheng, Y. and Prusoff, W. H., Biochem. Pharmacol. 1973, 22, 3099-3108)

Elastase = molecular target: T3, Elastase (Sus scrofa, UniProt P00772); assay: Elastase inhibition; type: biochemical
T3 construct: IC50 (Estimated from single concentration measurement); Ki
Description: as §1

Trypsin = molecular target: T4, Trypsin (UniProt P00760); assay: Trypsin inhibition; type: biochemical
T4 construct: IC50 (Estimated from single concentration measurement); Ki
T4 sequence (P00760 1-246): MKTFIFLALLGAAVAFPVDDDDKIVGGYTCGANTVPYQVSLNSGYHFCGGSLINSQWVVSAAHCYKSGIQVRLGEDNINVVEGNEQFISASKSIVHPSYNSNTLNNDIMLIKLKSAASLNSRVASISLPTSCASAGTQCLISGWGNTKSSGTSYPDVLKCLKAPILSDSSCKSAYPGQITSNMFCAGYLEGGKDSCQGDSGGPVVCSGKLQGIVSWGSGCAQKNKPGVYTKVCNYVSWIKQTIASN

[12] = Table 8, read-out: Ki vs CTX-M-9
[13] = Table 4f, read-out: IC50 (from multi- or single concentration measurements)
[14] = Table 4g, read-out: Ki (from multi- or single concentration measurements)
[15] = Table 4e, read-out: IC50 (Estimated from single concentration measurement)

cruzain, sequence (P25779 123-337 limits assumed): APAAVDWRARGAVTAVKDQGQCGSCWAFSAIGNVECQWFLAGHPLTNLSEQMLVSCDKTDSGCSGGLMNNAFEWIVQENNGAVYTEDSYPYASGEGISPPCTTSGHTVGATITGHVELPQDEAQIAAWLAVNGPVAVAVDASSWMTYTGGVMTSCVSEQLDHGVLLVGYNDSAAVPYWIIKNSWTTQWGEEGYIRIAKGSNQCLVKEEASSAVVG
CTX-M-9 β-lactamase, sequence (Q9L5C8 29-291): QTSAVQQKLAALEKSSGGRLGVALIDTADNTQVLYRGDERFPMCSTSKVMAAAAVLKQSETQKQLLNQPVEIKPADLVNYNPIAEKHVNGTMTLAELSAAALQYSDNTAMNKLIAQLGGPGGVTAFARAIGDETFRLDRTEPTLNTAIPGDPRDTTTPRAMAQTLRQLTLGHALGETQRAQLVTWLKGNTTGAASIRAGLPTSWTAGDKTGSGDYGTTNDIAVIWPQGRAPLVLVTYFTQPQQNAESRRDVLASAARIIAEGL
T3 sequence (P00772 27-266): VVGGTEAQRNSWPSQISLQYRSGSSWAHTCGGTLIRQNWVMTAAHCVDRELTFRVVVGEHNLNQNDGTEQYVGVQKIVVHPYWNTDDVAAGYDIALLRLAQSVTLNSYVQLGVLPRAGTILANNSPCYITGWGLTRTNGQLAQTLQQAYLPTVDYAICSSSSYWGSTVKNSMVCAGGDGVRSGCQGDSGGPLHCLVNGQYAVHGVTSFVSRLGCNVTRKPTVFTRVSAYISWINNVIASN
T2 sequence (P00811 20-377): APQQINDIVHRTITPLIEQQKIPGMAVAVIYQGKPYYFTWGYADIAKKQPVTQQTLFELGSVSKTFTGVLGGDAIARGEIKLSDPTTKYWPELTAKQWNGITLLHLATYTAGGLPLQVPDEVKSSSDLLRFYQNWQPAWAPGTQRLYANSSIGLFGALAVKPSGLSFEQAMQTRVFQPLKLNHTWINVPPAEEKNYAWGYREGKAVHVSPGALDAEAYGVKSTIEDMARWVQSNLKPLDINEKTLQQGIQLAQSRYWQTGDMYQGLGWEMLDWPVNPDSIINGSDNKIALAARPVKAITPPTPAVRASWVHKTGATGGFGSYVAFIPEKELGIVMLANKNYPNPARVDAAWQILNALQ

| Compound | IC50 (CTX-M-9 β-lactamase; Table 4a, read-out: IC50) [µM] | inhibition at 100 µM [1] | inhibition at 100 µM (cruzain) | MIC of cefotaxime with compound [2] [µg/mL] | MIC of ceftazidime with compound [2] [µg/mL] | MIC of cefotaxime with compound [3] [µg/mL] | MIC of ceftazidime with compound [3] [µg/mL] | MIC of cefotaxime with compound [4] [µg/mL] | MIC of ceftazidime with compound [4] [µg/mL] | MIC of cefotaxime with compound [5] [µg/mL] | MIC of ceftazidime with compound [5] [µg/mL] | MIC of cefotaxime with compound [6] [µg/mL] | MIC of ceftazidime with compound [6] [µg/mL] | MIC of cefotaxime with compound [7] [µg/mL] | MIC of ceftazidime with compound [7] [µg/mL] | inhibition of bacterial growth in combination with ceftazidime [8] | activity on bacteria growth, compound alone [8] | effect on the ceftazidime inhibition halo (induction of AmpC) [9] | Ki (CTX-M-9 β-lactamase; [12]) [µM] | also measured |
| --- | --- | --- | --- | --- | --- | --- | --- | --- | --- | --- | --- | --- | --- | --- | --- | --- | --- | --- | --- | --- |
| O=S(=O)(Cc1ccccc1)NCB(O)O [Compound 4, Pinacol(phenylmethanesulfonylamino)methaneboronate] | 6.87 | no measurable inhibition | no measurable inhibition | 4 | 4 | 2 | 4 | 16 | 4 | 4 | 8 | 1 | 4 | 16 | 2 | large inhibition halo | little or no detectable activity | synergic picture | – | Ki (CTX-M-9 β-lactamase): 2.5 µM; Ki (CTX-M-9 β-lactamase; read-out: Ki corresponding to the IC50 values): 2.53 µM; IC50 [1]: > 500 µM; IC50 (cruzain): > 500 µM |
| O=C(O)c1ccc(CS(=O)(=O)NCB(O)O)cc1 [Compound 9, [(4-carboxyphenyl)methanesulfonylamino]methaneboronic acid] | 1.5 | no measurable inhibition | no measurable inhibition | 8 | 4 | 4 | 4 | 32 | 8 | 2 | 4 | 2 | 8 | 8 | 1 | large inhibition halo | little or no detectable activity | synergic picture | 0.55 | IC50 ([1]; read-out: IC50): > 500 µM; IC50 (cruzain; read-out: IC50): > 500 µM; time dependence of inhibition (incubation effect, off-rate) (AmpC β-lactamase [10]): no measurable time dependence |
| CO[C@@]1(NC(=O)Cc2cccs2)C(=O)N2C(C(=O)O)=C(COC(N)=O)CS[C@@H]21 [cefoxitin, reference compound] | – | – | – | – | – | – | – | – | – | – | – | – | – | – | – | – | – | antagonist picture | – | – |
| Pinacol(chloromethanesulfonylamino)methaneboronate [CR70] | – | – | – | – | – | – | – | – | – | – | – | – | – | – | – | – | – | – | 5.9 | IC50 (AmpC β-lactamase [11]; [13]): 1.55 µM; Ki (AmpC β-lactamase [11]; [14]): 0.3 µM; Ki (AmpC β-lactamase [11]; Table 7, read-out: Ki Vs AmpC): 0.31 µM; Ki (AmpC β-lactamase [11]; Table 8, read-out: Ki vs AmpC): 0.31 µM; potency estimated from few doses (CTX-M-9 β-lactamase; [15]): 16 µM; IC50 (CTX-M-9 β-lactamase; [13]): 16 µM; Ki (CTX-M-9 β-lactamase; [14]): 5.9 µM; Percentage inhibition with 16 μM inhibitor (CTX-M-9 β-lactamase; Table 4d, 16 μM inhibitor): 50; Percentage activity with 100 μM inhibitor ([1]; Table 4b, 100 μM inhibitor): 90; Percentage inhibition with 100 μM inhibitor ([1]; Table 4c, 100 μM inhibitor): 10; potency estimated from few doses [1, 15]: 900 µM; Percentage inhibition with 100 μM inhibitor (Elastase): 90; Percentage activity with 100 μM inhibitor (Elastase; Table 4b, 100 μM inhibitor): 10; potency estimated from few doses (Elastase; [15]): 11 µM; Percentage activity with 100 μM inhibitor (Trypsin; Table 4b, 100 μM inhibitor): 97; Percentage inhibition with 100 μM inhibitor (Trypsin; Table 4c, 100 μM inhibitor): 3; potency estimated from few doses (Trypsin; [15]): 3230 µM |

From patent US9371337B2, “β-lactamase inhibitors” (The Regents of the University of California, priority 2011, dated 2016)
